Test results reported in ChEMBL document CHEMBL1130584, “Synthesis of boronic acid analogs of L-arginine as alternate substrates or inhibitors of nitric oxide synthase” (Bioorg Med Chem Lett, 1998).

Experiments:
[1] = molecular target: T1, Nitric oxide synthase, inducible (Homo sapiens, UniProt P35228); test: Compound was tested for inhibitory activity against inducible nitric oxide synthase
Nitric oxide synthase 1 = Nitric oxide synthase 1 (Homo sapiens, UniProt P29475); test: Compound was tested for inhibitory activity against neuronal nitric oxide synthase
Nitric oxide synthase 1, sequence (P29475 whole entry): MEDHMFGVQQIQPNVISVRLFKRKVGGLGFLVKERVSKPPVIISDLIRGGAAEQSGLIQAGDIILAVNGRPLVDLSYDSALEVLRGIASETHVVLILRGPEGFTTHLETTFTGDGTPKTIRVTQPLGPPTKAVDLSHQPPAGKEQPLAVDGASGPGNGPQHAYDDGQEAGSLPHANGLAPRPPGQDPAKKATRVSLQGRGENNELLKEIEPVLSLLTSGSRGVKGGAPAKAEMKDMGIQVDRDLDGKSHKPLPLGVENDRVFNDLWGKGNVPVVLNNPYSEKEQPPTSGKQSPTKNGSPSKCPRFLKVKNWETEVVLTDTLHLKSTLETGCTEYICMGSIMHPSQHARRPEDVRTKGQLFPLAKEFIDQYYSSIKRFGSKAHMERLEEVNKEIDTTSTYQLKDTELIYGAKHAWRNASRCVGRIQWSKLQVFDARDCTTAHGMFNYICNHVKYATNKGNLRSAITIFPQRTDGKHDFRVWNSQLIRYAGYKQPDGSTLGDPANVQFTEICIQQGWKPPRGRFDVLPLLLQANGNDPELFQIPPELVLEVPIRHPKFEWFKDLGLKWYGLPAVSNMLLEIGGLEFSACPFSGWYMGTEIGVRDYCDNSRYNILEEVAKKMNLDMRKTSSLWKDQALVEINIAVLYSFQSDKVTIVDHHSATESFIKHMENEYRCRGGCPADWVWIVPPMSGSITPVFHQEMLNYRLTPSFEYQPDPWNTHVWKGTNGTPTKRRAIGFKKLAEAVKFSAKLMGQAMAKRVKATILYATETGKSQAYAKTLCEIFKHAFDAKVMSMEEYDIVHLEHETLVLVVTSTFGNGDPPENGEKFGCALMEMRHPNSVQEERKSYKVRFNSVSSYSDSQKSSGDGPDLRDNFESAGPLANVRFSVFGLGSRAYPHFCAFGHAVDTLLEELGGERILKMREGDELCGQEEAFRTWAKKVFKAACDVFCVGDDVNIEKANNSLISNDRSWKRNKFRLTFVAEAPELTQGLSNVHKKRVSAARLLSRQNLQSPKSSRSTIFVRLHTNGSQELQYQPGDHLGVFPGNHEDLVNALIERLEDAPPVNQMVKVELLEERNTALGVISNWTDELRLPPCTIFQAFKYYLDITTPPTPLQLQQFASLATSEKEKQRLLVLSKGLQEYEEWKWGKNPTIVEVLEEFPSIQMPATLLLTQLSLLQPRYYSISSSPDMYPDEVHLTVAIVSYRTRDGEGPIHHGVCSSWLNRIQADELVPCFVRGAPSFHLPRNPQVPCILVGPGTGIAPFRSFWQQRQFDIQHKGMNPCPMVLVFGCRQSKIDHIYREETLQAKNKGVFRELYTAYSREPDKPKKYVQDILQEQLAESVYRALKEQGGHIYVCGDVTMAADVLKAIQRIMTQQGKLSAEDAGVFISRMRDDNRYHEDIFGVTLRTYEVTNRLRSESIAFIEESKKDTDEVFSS

[2] = molecular target: T1, Nitric oxide synthase, inducible; test: Compound was tested for inhibitory activity against inducible nitric oxide synthase using L-arginine as substrate

T1 sequence (P35228 whole entry): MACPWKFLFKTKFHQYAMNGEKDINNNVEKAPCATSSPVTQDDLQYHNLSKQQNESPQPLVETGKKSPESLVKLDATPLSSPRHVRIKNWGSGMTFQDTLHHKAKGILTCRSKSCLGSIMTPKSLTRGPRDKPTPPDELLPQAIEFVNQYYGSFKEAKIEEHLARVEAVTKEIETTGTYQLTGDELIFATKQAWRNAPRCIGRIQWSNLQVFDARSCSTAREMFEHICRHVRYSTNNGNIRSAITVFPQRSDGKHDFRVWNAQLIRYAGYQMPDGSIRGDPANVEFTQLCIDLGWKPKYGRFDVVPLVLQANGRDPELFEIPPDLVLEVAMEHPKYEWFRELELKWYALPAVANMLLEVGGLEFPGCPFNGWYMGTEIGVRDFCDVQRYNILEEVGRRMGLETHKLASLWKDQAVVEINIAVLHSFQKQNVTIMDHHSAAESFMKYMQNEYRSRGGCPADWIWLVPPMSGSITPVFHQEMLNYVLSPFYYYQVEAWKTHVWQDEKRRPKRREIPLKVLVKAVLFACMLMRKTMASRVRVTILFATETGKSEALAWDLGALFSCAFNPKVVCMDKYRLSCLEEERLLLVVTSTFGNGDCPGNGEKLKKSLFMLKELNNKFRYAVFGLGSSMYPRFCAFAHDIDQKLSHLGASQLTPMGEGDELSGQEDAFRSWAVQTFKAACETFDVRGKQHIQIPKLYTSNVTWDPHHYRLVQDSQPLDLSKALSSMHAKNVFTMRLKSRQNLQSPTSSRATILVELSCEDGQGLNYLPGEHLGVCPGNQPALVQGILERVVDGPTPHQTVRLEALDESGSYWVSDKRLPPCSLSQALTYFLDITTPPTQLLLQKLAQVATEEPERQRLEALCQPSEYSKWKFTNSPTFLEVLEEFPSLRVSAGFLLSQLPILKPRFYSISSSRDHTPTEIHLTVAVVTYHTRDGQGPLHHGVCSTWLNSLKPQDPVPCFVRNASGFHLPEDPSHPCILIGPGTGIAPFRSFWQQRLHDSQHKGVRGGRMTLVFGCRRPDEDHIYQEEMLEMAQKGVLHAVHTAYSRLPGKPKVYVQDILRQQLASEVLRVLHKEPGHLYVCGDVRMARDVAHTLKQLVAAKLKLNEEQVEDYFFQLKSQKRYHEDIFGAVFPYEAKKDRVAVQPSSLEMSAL

| IC50 [1] | IC50 (Nitric oxide synthase 1) | Ks [2] | Structure (SMILES) |
| --- | --- | --- | --- |
| > 500 µM | > 500 µM | – | CC(=O)N[C@@H](CCCN=C(N)N)B(O)O |
| 50 µM | 300 µM | 200 µM | NC(N)=NCCC[C@H](N)B(O)O |
